Assay: xn = mol fraction of the nth substance listed
Conditions: 101 kPa

CCCC[N+]1(C)CCCC1.O=S(=O)([N-]S(=O)(=O)C(F)(F)F)C(F)(F)F + CC1COC(=O)O1
Conditions | electrical conductivity, 253.15 K [S/m] | electrical conductivity, 258.15 K [S/m] | electrical conductivity, 263.15 K [S/m] | electrical conductivity, 268.15 K [S/m] | electrical conductivity, 273.15 K [S/m] | electrical conductivity, 278.15 K [S/m] | electrical conductivity, 283.15 K [S/m] | electrical conductivity, 288.15 K [S/m] | electrical conductivity, 293.15 K [S/m] | viscosity, 293.15 K [mPa·s]
x2 = 0 | 0.017 | 0.031 | 0.045 | 0.072 | – | 0.152 | 0.193 | 0.249 | – | –
x2 = 0.05 | 0.021 | 0.037 | – | 0.082 | 0.122 | 0.168 | – | 0.271 | 0.328 | 70.58
x2 = 0.11 | – | 0.043 | 0.062 | 0.094 | 0.137 | 0.185 | 0.234 | 0.295 | 0.357 | 59.09
x2 = 0.16 | 0.032 | – | 0.073 | 0.108 | 0.154 | 0.205 | – | 0.322 | 0.388 | 50.53
x2 = 0.21 | – | 0.061 | 0.086 | 0.124 | 0.173 | 0.228 | 0.284 | 0.351 | 0.421 | 44.05
x2 = 0.26 | 0.049 | – | 0.102 | 0.143 | – | – | 0.313 | – | 0.458 | 38.97
x2 = 0.32 | 0.06 | 0.086 | 0.12 | 0.165 | 0.22 | 0.281 | 0.346 | 0.42 | 0.498 | 34.77
x2 = 0.37 | 0.074 | 0.102 | – | 0.19 | 0.249 | 0.312 | – | 0.459 | 0.542 | 31.1
x2 = 0.42 | 0.09 | 0.121 | 0.165 | 0.218 | – | 0.347 | 0.421 | 0.501 | 0.588 | 27.69
x2 = 0.47 | – | 0.144 | 0.193 | 0.251 | 0.316 | 0.385 | 0.464 | – | 0.638 | 24.42
x2 = 0.53 | 0.13 | 0.169 | – | 0.288 | 0.356 | 0.426 | 0.51 | 0.595 | – | –
x2 = 0.58 | 0.155 | – | 0.261 | 0.328 | 0.399 | 0.47 | – | 0.645 | 0.742 | 18.11
x2 = 0.63 | – | 0.231 | 0.3 | 0.372 | 0.444 | 0.516 | 0.606 | 0.696 | 0.794 | 15.13
x2 = 0.68 | 0.213 | 0.266 | 0.341 | – | 0.491 | 0.562 | – | 0.745 | – | –
x2 = 0.74 | 0.243 | 0.302 | 0.381 | 0.461 | – | 0.604 | 0.697 | – | – | –
x2 = 0.79 | – | 0.333 | 0.415 | 0.496 | 0.57 | 0.637 | 0.728 | – | – | –
x2 = 0.84 | 0.287 | 0.353 | 0.432 | 0.512 | 0.585 | 0.649 | 0.735 | 0.821 | – | –
x2 = 0.89 | – | 0.344 | – | 0.487 | 0.559 | 0.621 | – | 0.776 | – | –
x2 = 0.95 | 0.232 | 0.274 | 0.323 | 0.377 | 0.445 | – | – | 0.63 | – | –
x2 = 0.97 | 0.165 | 0.182 | 0.232 | 0.296 | 0.375 | 0.414 | – | 0.528 | – | –

Source: a compilation of properties of binary mixtures (doi:10.1007/s10953-010-9562-5)
